Test results taken from article PMC12113347, “Compound 3d Attenuates Metabolic Dysfunction-Associated Steatohepatitis via Peroxisome Proliferator-Activated Receptor Pathway Activation and Inhibition of Inflammatory and Apoptotic Signaling” (Metabolites, 2025).

How the values were obtained:
C57BL/6J male mice = assay: HFD-induced MASH model in mice: serum and liver biochemistry, body and liver weight, histology; assay type: in vivo; conditions: HFD mice; for body weight: 8 weeks of treatment; for serum TG levels: 8 weeks, fenofibrate 100 mg/kg, elafibranor 30 mg/kg, 3d 3, 10, 30 mg/kg; for liver weight/body weight: indicator for evaluating drug toxicity
Experimental: All animal studies were conducted in accordance with national legislation and local guidelines at the Center for Laboratory Animals in Tianjin University of Science and Technology and approved by the Animal Ethics Committee of Tianjin University of Science and Technology (8 March 2022, Tianjin, China). The C57BL/6J male mice (6 weeks) were purchased from Henan Scribex Biotechnology Co, Ltd (Zhenzhou, China). Following a one-week period of acclimatization, the mice were fed a high-fat diet (HFD) comprising 60% fat (TP23300, Trophic Animal Feed High-Tech Co., Ltd., (Nantong, China)) and a low-fat control diet (TP23302, Trophic Animal Feed High-Tech Co., Ltd., (Nantong, China)) for 16 weeks.
After 16 weeks of continuous feeding on a high-fat diet, key indicators were tested to determine modeling success and drug administration was initiated. The mice were randomly divided into seven groups (n = 10) according to their body weight. The groups were as follows: control group (control diet, 0.5% CMC-Na), model group (HFD, 0.5% CMC-Na), positive control group (HFD, 100 mg/kg Fenofibrate), elafibranor group (HFD, 30 mg/kg), and 3d group (HFD, 3, 10, 30 mg/kg). The experiment was conducted over a period of eight weeks.
After fasting for 12 h, the mice were anaesthetized and blood samples were collected, as were the mice liver tissues. The ileal contents were collected and immediately frozen in liquid nitrogen and then transferred to storage at −80 °C. The blood samples were subjected to centrifugation at 3000 rpm/min for 10 min to obtain supernatant serum, which was stored at −80 °C. The liver tissues were weighed, and a portion of the liver was preserved in 4% paraformaldehyde for subsequent pathological sectioning, including staining with H&E, Masson, and Oil Red O. The remaining samples were stored at −80 °C for testing of various biochemical indices.
The serum levels of TG, total cholesterol (TC), low-density lipoprotein cholesterol (LDL-C), […] aminotransferase (AST), ALT, and TNF-α were determined according to the instructions of the kit. The levels of glutathione (GSH) and superoxide dismutase (SOD) were measured using liver tissue homogenates. The kits were purchased from the Nanjing Jiancheng Institute of Biological Engineering (Nanjing, China).

[1] = in vivo; cited from earlier work
[2] = In vitro stability in DMEM medium, simulated gastric fluid and simulated intestinal fluid (HPLC); assay type: in vitro ADME; conditions: 40 μM, 37 °C
Experimental: Elafibranor and 3d (40 μM) were dissolved in DMEM medium, as well as in simulated gastric fluid (SGF) and simulated intestinal fluid (SIF), respectively, at 37 °C. The concentration of the compounds was determined within 24 h by HPLC. The HPLC conditions comprised an ACQUITY UPLC BEH C18 column maintained at 40 °C with a mobile phase consisting of 20% ultrapure water and 80% acetonitrile, with a flow rate of 1 mL/min at 360 nm.

Row | concentration in culture medium (stability) ([2]; DMEM, within 24 h) | concentration in gastric fluid (stability) ([2]; SGF) | concentration in intestinal fluid (stability) ([2]; SIF, within 24 h) | SMILES | liver steatosis and lipid accumulation (HE, Oil Red O sections) (C57BL/6J male mice) | body weight (C57BL/6J male mice) | serum TG levels (C57BL/6J male mice) | liver weight/body weight (C57BL/6J male mice) | oral bioavailability [1]
1 |  |  |  | CC(C)OC(=O)C(C)(C)Oc1ccc(C(=O)c2ccc(Cl)cc2)cc1 [fenofibrate, Fenofibrate, reference compound] | improved the steatosis and reduced lipid accumulation in the liver to some extent | decrease in body weight | decreased and returned to normal levels | substantial influence on the rise | 
2 | remained relatively constant | decreased significantly after 60 min | remained relatively constant | CSc1ccc(C(=O)/C=C/c2cc(C)c(OC(C)(C)C(=O)O)c(C)c2)cc1 [elafibranor, Elafibranor, reference compound] | effective in reducing the degree of steatosis and reducing lipid accumulation better than fenofibrate but still could not bring them back to fully normal | decrease in body weight | decreased and returned to normal levels | substantial influence on the rise | around 30%
